pIC50: −log10 of the molar value.

Broadly, the pIC50 is the negative decadic logarithm of the IC50, by convention in mol/L.

For this assay, the target named is T1, MAGL (Homo sapiens, UniProt Q99685).
T1 sequence (Q99685 1-303): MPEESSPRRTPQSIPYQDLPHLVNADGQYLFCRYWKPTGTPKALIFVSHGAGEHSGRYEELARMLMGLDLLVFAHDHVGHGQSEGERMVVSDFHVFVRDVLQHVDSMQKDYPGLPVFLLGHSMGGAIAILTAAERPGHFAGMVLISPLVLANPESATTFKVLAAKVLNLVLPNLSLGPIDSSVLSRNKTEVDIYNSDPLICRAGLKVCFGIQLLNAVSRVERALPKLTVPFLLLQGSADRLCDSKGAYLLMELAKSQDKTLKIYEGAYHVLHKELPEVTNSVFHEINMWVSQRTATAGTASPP
The experiment in a line: 2-AG assay: MAGL inhibitory activity by hydrolysis of 2-arachidonoylglycerol to arachidonic acid, followed by mass spectrometry. The conditions noted are these: 8 μM 2-arachidonoylglycerol, 15 min preincubation and 30 min reaction at RT, arachidonic acid/d8-arachidonic acid ratio by MS. The assay is classed as biochemical. How it is done:
Compounds of formula (I) were profiled for MAGL inhibitory activity by determining the enzymatic activity by following the hydrolysis of the natural substrate 2-arachidonoylglycerol (2-AG) resulting in arachidonic acid, which can be followed by mass spectrometry. This assay is hereinafter abbreviated “2-AG assay”.
The 2-AG assay was carried out in 384 well assay plates (PP, Greiner Cat #784201) in a total volume of 20 μL. Compound dilutions were made in 100% DMSO (VWR Chemicals 23500.297) in a polypropylene plate in 3-fold dilution steps to give a final concentration range in the assay from 12.5 μM to […]. 0.25 μL compound dilutions (100% DMSO) were added to 9 μL MAGL in assay buffer (50 mM TRIS (GIBCO, 15567-027), 1 mM EDTA (Fluka, 03690-100 mL), 0.01% (v/v) Tween. After shaking, the plate was incubated for 15 min at RT. To start the reaction, 10 μL 2-arachidonoylglycerol in assay buffer was added. The final concentrations in the assay was […] and 8 μM 2-arachidonoylglyerol. After shaking and 30 min incubation at RT, the reaction was quenched by the addition of 40 μL of ACN containing 4 μM of d8-arachidonic acid. The amount of arachidonic acid was traced by an online SPE system (Agilent Rapidfire) coupled to a triple quadrupole mass spectrometer (Agilent 6460). A C18 SPE cartridge (G9205A) was used in an ACN/water liquid setup. The mass spectrometer was operated in negative electrospray mode following the mass transitions 303.1→259.1 for arachidonic acid and 311.1→267.0 for d8-arachidonic acid. The activity of the compounds was calculated based on the ratio of intensities [arachidonic acid/d8-arachidonic acid].
Turning to `CC(C)(C)Cn1nncc1-c1ccc(C2CN(C(=O)N3CC[C@@H]4OCC(=O)N[C@@H]4C3)C2)cc1` [Example 36, (4aR, 8aS)-6-[3-[4-[3-(2,2-Dimethylpropyl)triazol-4-yl]phenyl]azetidine-1-carbonyl]-4,4a,5,7,8,8a-hexahydropyrido[4,3-b][1,4]oxazin-3-one], the pIC50 is 9.05.

For the molecule `O=C1CO[C@H]2CCN(C(=O)N3CC(c4ccc(Oc5ccncc5F)cc4)C3)C[C@H]2N1` [Example 28, (+)-(4aR,8aS)-6-[3-[4-[(3-Fluoro-4-pyridyl)oxy]phenyl]azetidine-1-carbonyl]-4,4a,5,7,8,8a-hexahydropyrido[4,3-b][1,4]oxazin-3-one], the pIC50 was 8.20.

Consider `Cc1ccnnc1Oc1ccc(C2CN(C(=O)N3CC[C@@H]4OCC(=O)N[C@@H]4C3)C2)cc1` [Example 11, (+)-(4aR,8aS)-6-[3-[4-(4-Methylpyridazin-3-yl)oxyphenyl]azetidine-1-carbonyl]-4,4a,5,7,8,8a-hexahydropyrido[4,3-b][1,4]oxazin-3-one], for which the pIC50 is 7.37.

As for `Cc1ncccc1Oc1ccc(C2CN(C(=O)N3CC[C@@H]4OCC(=O)N[C@@H]4C3)C2)cc1` [Example 4, (4aR,8aS)-6-[3-[4-[(2-Methyl-3-pyridyl)oxy]phenyl]azetidine-1-carbonyl]-4,4a,5,7,8,8a-hexahydropyrido[4,3-b][1,4]oxazin-3-one], the pIC50 is 8.60.

Regarding `O=C1CO[C@H]2CCN(C(=O)N3CC(c4ccc(Oc5cccnc5)cc4)C3)C[C@H]2N1` [Example 10, (+)-(4aR,8aS)-6-[3-[4-(3-Pyridyloxy)phenyl]azetidine-1-carbonyl]-4,4a,5,7,8,8a-hexahydropyrido[4,3-b][1,4]oxazin-3-one], the pIC50 is 8.64.

Take `CC(C)(C)Cn1nccc1-c1ccc(C2CN(C(=O)N3CC[C@@H]4OCC(=O)N[C@@H]4C3)C2)cc1` [Example 32a, (4aR,8aS)-6-[3-[4-[2-(2,2-Dimethylpropyl)pyrazol-3-yl]phenyl]azetidine-1-carbonyl]-4,4a,5,7,8,8a-hexahydropyrido[4,3-b][1,4]oxazin-3-one]: the pIC50 is 9.70.

In the case of `N#Cc1ccccc1Oc1ccc(C2CN(C(=O)N3CC[C@@H]4OCC(=O)N[C@@H]4C3)C2)cc1` [Example 23, (+)-2-[4-[1-[(4aR,8aS)-3-Oxo-4,4a,5,7,8,8a-hexahydropyrido[4,3-b][1,4]oxazine-6-carbonyl]azetidin-3-yl]phenoxy]benzonitrile], the pIC50 was 9.70.

Take `O=C1CO[C@H]2CCN(C(=O)N3CC(O)(c4ccc(Oc5ccccc5)cn4)C3)C[C@H]2N1` [Example 56, (4aR,8aS)-6-[3-Hydroxy-3-(5-phenoxy-2-pyridyl)azetidine-1-carbonyl]-4,4a,5,7,8,8a-hexahydropyrido[4,3-b][1,4]oxazin-3-one]: the pIC50 is 7.81.

On to `Cc1ccnc(Oc2ccc(C3CN(C(=O)N4CC[C@@H]5OCC(=O)N[C@@H]5C4)C3)cc2)n1` [Example 5, (+)-(4aR,8aS)-6-[3-[4-(4-Methylpyrimidin-2-yl)oxyphenyl]azetidine-1-carbonyl]-4,4a,5,7,8,8a-hexahydropyrido[4,3-b][1,4]oxazin-3-one], for which the pIC50 was 7.62.

Regarding `O=C1CO[C@H]2CCN(C(=O)N3CC(c4ccc(Oc5ncccn5)cc4)C3)C[C@H]2N1` [Example 3, (4aR,8aS)-6-[3-(4-Pyrimidin-2-yloxyphenyl)azetidine-1-carbonyl]-4,4a,5,7,8,8a-hexahydropyrido[4,3-b][1,4]oxazin-3-one], the pIC50 is 7.12.

Consider `CC(C)(C)Cn1ccc(-c2ccc(C3CN(C(=O)N4CC[C@@H]5OCC(=O)N[C@@H]5C4)C3)cc2)n1` [Example 32b, (4aR,8aS)-6-[3-[4-[1-(2,2-Dimethylpropyl)pyrazol-3-yl]phenyl]azetidine-1-carbonyl]-4,4a,5,7,8,8a-hexahydropyrido[4,3-b][1,4]oxazin-3-one], for which the pIC50 is 8.19.

With `O=C1CO[C@H]2CCN(C(=O)N3CC(c4ccc(Oc5ccc(Cl)cc5)nc4)C3)C[C@H]2N1` [Example 50, (4aR,8aS)-6-(3-(6-(4-Chlorophenoxy)pyridin-3-yl)azetidine-1-carbonyl)hexahydro-2H-pyrido[4,3-b][1,4]oxazin-3(4H)-one], the pIC50 was 8.37.

With `Cn1nccc1-c1ccc(C2CN(C(=O)N3CC[C@@H]4OCC(=O)N[C@@H]4C3)C2)cc1` [Example 46, (4aR,8aS)-6-[3-[4-(2-Methylpyrazol-3-yl)phenyl]azetidine-1-carbonyl]-4,4a,5,7,8,8a-hexahydropyrido[4,3-b][1,4]oxazin-3-one], the pIC50 is 7.76.

As for `Cc1cc(Oc2ccc(C3CN(C(=O)N4CC[C@@H]5OCC(=O)N[C@@H]5C4)C3)cc2)c(C)nn1` [Example 51, (4aR,8aS)-6-[3-[4-(3,6-Dimethylpyridazin-4-yl)oxyphenyl]azetidine-1-carbonyl]-4,4a,5,7,8,8a-hexahydropyrido[4,3-b][1,4]oxazin-3-one], the pIC50 was 6.91.

For the molecule `O=C1CO[C@H]2CCN(C(=O)N3CC(c4ccc(Oc5ccc(F)cc5)cn4)C3)C[C@H]2N1` [Example 47, (4aR,8aS)-6-[3-[5-(4-Fluorophenoxy)-2-pyridyl]azetidine-1-carbonyl]-4,4a,5,7,8,8a-hexahydropyrido[4,3-b][1,4]oxazin-3-one], the pIC50 was 8.85.

`O=C1CO[C@H]2CCN(C(=O)N3CCC(c4ccc(Oc5ccc(F)cc5)cc4)CC3)C[C@H]2N1` [Example 54, (4aR,8aS)-6-[4-[4-(4-Fluorophenoxy)phenyl]piperidine-1-carbonyl]-4,4a,5,7,8,8a-hexahydropyrido[4,3-b][1,4]oxazin-3-one]: the pIC50 is 7.98.

As to `O=C1CO[C@H]2CCN(C(=O)N3CC(c4ccc(Oc5cccc(Cl)c5)nc4)C3)C[C@H]2N1` [Example 53, (4aR,8aS)-6-(3-(6-(3-Chlorophenoxy)pyridin-3-yl)azetidine-1-carbonyl)hexahydro-2H-pyrido[4,3-b][1,4]oxazin-3(4H)-one], the pIC50 was 7.89.

With `O=C1CO[C@H]2CCN(C(=O)N3CC(c4ccc(-c5ccc(F)nc5)cc4)C3)C[C@H]2N1` [Example 43, (4aR,8aS)-6-[3-[4-(6-Fluoropyridin-3-yl)phenyl]azetidine-1-carbonyl]-4,4a,5,7,8,8a-hexahydropyrido[4,3-b][1,4]oxazin-3-one], the negative-log IC50 (pIC50) is 7.71.

On to `O=C1CO[C@H]2CCN(C(=O)N3CC(c4ccc(Oc5cnccc5Cl)cc4)C3)C[C@H]2N1` [Example 27, (+)-(4aR,8aS)-6-[3-[4-[(4-chloro-3-pyridyl)oxy]phenyl]azetidine-1-carbonyl]-4,4a,5,7,8,8a-hexahydropyrido[4,3-b][1,4]oxazin-3-one], for which the pIC50 was 9.52.

On to `O=C1CO[C@H]2CCN(C(=O)N3CC(c4ccc(Oc5ccccc5Cl)cc4)C3)C[C@H]2N1` [Example 2, (4aR,8aS)-6-[3-[4-(2-Chlorophenoxy)phenyl]azetidine-1-carbonyl]-4,4a,5,7,8,8a-hexahydropyrido[4,3-b][1,4]oxazin-3-one], for which the pIC50 was 10.70.

In the case of `O=C1CO[C@H]2CCN(C(=O)N3CC(c4ccc(Oc5ccccc5)cc4)C3)C[C@H]2N1` [Example 1, (4aR,8aS)-6-(3-(4-Phenoxyphenyl)azetidine-1-carbonyl)hexahydro-2H-pyrido[4,3-b][1,4]oxazin-3(4H)-one], the pIC50 was 9.70.

As for `O=C1CO[C@H]2CCN(C(=O)N3CC(c4ccc(Oc5ccc(F)cc5)nc4)C3)C[C@H]2N1` [Example 48, (4aR,8aS)-6-(3-(6-(4-Fluorophenoxy)pyridin-3-yl)azetidine-1-carbonyl)hexahydro-2H-pyrido[4,3-b][1,4]oxazin-3(4H)-one], the pIC50 is 7.50.

In the case of `O=C1CO[C@H]2CCN(C(=O)N3CC(c4ccc(-c5ccnc(F)c5)cc4)C3)C[C@H]2N1` [Example 44, (4aR,8aS)-6-[3-[4-(2-Fluoropyridin-4-yl)phenyl]azetidine-1-carbonyl]-4,4a,5,7,8,8a-hexahydropyrido[4,3-b][1,4]oxazin-3-one], the pIC50 is 7.17.

Regarding `Cc1nc(C)c(-c2ccc(C3CN(C(=O)N4CC[C@@H]5OCC(=O)N[C@@H]5C4)C3)cc2)o1` [Example 34, (4aR,8aS)-6-[3-[4-(2,4-Dimethyloxazol-5-yl)phenyl]azetidine-1-carbonyl]-4,4a,5,7,8,8a-hexahydropyrido[4,3-b][1,4]oxazin-3-one], the pIC50 is 7.64.

Source of the values: patent US11814375B2, “Heterocyclic compounds” (Hoffmann-La Roche Inc., priority 2019, dated 2023).
